# Patent US20250340574A1, “MODULATORS OF CYSTIC FIBROSIS TRANSMEMBRANE CONDUCTANCE REGULATOR” (Vertex Pharmaceuticals Incorporated, priority 2022, published 2025)
# Where two headings read alike, the source gives them in different places.
# Key:
# [1] = molecular target: T1, CFTR (F508del/MF-HBE cells) (Homo sapiens, UniProt P13569, DEL508-508); assay: Ussing chamber assay of CFTR-mediated short-circuit currents, Assay C (0.026 μM to 25 μM, 6 concentrations); assay type: cell-based; details: with 33 nM potentiator and 18 μM Tezacaftor, 20% human serum; for Emax: read-out: C Max activity (%)
# T1 construct: human bronchial epithelial (HBE) cells derived from CF subjects heterozygous for F508del and a minimal function CFTR mutation (F508del/MF-HBE); endogenous in cells; host or cells: Primary human bronchial epithelial cells from CF subjects (F508del/MF genotype), differentiated at an air-liquid interface
# T1 sequence (P13569 with tags, fused parts or gaps DEL508-508): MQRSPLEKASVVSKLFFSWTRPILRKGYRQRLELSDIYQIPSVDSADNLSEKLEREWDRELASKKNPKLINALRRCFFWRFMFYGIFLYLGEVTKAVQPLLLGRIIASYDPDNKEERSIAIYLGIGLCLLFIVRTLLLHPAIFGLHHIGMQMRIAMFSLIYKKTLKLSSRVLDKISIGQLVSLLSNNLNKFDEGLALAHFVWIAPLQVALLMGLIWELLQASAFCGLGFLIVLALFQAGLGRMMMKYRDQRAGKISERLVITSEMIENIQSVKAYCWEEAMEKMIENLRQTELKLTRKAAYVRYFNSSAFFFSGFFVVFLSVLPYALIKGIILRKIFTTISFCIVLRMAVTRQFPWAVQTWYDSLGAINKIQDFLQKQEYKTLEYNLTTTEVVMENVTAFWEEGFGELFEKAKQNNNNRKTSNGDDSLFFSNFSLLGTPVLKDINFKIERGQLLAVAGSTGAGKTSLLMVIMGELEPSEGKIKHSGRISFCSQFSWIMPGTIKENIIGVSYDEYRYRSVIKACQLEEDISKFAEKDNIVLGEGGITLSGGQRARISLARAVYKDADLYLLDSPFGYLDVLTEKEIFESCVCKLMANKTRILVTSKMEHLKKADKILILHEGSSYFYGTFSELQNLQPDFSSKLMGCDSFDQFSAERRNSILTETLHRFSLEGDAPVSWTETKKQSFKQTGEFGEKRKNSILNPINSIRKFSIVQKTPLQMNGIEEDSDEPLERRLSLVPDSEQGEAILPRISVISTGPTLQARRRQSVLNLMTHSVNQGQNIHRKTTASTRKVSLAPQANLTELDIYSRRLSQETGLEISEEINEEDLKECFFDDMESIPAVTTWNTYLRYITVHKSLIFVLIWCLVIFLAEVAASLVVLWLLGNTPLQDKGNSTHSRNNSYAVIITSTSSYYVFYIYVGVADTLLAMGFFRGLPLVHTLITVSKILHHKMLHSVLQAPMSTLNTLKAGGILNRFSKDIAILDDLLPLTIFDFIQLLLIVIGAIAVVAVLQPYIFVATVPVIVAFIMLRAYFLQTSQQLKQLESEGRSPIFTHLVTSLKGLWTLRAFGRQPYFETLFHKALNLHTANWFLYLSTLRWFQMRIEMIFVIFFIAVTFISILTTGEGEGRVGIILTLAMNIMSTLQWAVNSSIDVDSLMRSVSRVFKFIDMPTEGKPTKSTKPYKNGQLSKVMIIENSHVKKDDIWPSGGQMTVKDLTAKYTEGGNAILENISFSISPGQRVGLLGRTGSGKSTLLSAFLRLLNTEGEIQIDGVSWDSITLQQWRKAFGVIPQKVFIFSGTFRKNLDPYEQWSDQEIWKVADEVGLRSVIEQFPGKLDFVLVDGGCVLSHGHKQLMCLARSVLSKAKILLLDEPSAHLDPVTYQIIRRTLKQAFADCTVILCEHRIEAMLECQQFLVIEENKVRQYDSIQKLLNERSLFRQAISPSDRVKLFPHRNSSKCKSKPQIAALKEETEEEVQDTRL
# How it was run: (§1)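 F508del/MF-HBE cells were preincubated 18–24 h at 37 °C in 20% human serum with corrector plus 18 μM tezacaftor and either 33 nM (concentration series) or 44 nM (1 μM single point) of the aminotrifluoromethyl triazatricyclic potentiator. Ussing chamber, Vhold=0 mV, 37 °C; forskolin 20 μM stimulation, CFTR ISC taken as inhibitor-cocktail-sensitive current.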
# [2] = molecular target: T1, CFTR (F508del/MF-HBE cells); assay: Ussing chamber assay of CFTR-mediated short-circuit currents, Assay D (single concentration of 1 μM); assay type: cell-based; details: with 44 nM potentiator and 18 μM Tezacaftor, 20% human serum; for D activity at 1 μM (%): 18-24 hours
# How it was run: as §1
SMILES,EC50 [1] [nM],Emax [1] [%],D act. at 1 μM (%) [2],Emax ([1]; 18-24 hours) [%],D activity at 1 μM (%) [2]
Cc1cccc(C)c1-c1nc2nc(c1C)OC[C@@H](C[C@H]1CCCCO1)N(Cc1cnc3cc(C4CC4)n(C)c3n1)C(=O)c1cccc(c1)S(=O)(=O)N2 [Compound I-193],< 1000,–,–,> 60,+++ (+++ is >60%)
Cc1cccc(C)c1-c1nc2nc(c1C)OC[C@@H](CC(C)(C)C)N(Cc1cnc3oc(C(C)C)cc3n1)C(=O)c1cccc(c1)S(=O)(=O)N2 [Compound I-110],1000 to 3000,–,–,> 60,+++ (+++ is >60%)
Cc1cccc(C)c1-c1cc2nc(n1)NS(=O)(=O)c1cccc(c1)C(=O)N(Cc1cnc3cc(C(C)(C)C)n(C)c3n1)[C@H](CC(C)(C)C)CO2 [Compound I-239],< 1000,–,–,> 60,+++ (+++ is >60%)
"Cc1cccc(CC(C)C)c1-c1nc2nc(c1C)OC[C@@H](CC(C)(C)C)N(Cc1cnc3oc(C4CC4)cc3n1)C(=O)c1cccc(c1)S(=O)(=O)N2 (atropisomer, axis not shown) [Compound I-137]",< 1000,–,–,> 60,+++ (+++ is >60%)
"Cc1cccc(C(C)C)c1-c1nc2nc(c1C)OC[C@@H](CC(C)(C)C)N(Cc1cnc3oc(C4(C)CC4)cc3n1)C(=O)c1cccc(c1)S(=O)(=O)N2 (atropisomer, axis not shown) [Compound I-213]",< 1000,–,–,> 60,+++ (+++ is >60%)
Cc1cccc(C)c1-c1cc2nc(n1)NS(=O)(=O)c1cccc(c1)C(=O)N(Cc1ncc3cc(C4CC4)n(C)c3n1)[C@H](CC13CC(C1)C3)CO2 [Compound I-264],1000 to 3000,–,–,> 60,+++ (+++ is >60%)

# The next lines start with the values.
EC50 [1] [nM],Emax [1] [%],D act. at 1 μM (%) [2],Emax ([1]; 18-24 hours) [%],D activity at 1 μM (%) [2],SMILES
< 1000,> 60,+++ (+++ is >60%),–,–,Cc1cccc(C)c1-c1cc2nc(n1)NS(=O)(=O)c1cccc(c1)C(=O)N(Cc1cnc3cc(C(C)(C)C)n(C)c3n1)[C@@H](C(C(C)C)C(C)C)CO2 [IV-32]
< 1000,> 60,+++ (+++ is >60%),–,–,Cc1cccc(C)c1-c1cc2nc(n1)NS(=O)(=O)c1cccc(c1)C(=O)N(Cc1cnc3oc(C(C)(C)C)cc3n1)[C@@H](C(C(C)C)C(C)C)CO2 [IV-36]
3000 to 30000,> 60,+++ (+++ is >60%),–,–,Cc1cccc(C)c1-c1cc2nc(n1)NS(=O)(=O)c1cccc(c1)C(=O)N(Cc1cnc3oc(C(C)(C)C)cc3n1)[C@@H](C(C1CCC1)C1CCC1)CO2 [IV-33]
1000 to 3000,> 60,+++ (+++ is >60%),–,–,Cc1cccc(C)c1-c1cc2nc(n1)NS(=O)(=O)c1cccc(c1)C(=O)N(Cc1cnc3oc(COC(C)C)cc3n1)[C@H](CC1(C)CC1)CO2 [IV-18]
1000 to 3000,> 60,+++ (+++ is >60%),–,–,COc1c2nc(nc1-c1c(C)cccc1C)NS(=O)(=O)c1cccc(c1)C(=O)N(Cc1cnc3oc(C(C)(C)C)cc3n1)[C@H](CC1(C)CC1)CO2 [IV-12]
3000 to 30000,> 60,+++ (+++ is >60%),–,–,"Cc1cccc(C)c1-c1cc2nc(n1)NS(=O)(=O)c1cccc(c1)C(=O)N(Cc1cnc3oc(CC(C)C)cc3n1)[C@H](CC1(C)CC1)CO2 [IV-24, (11R)-6-(2,6-dimethylphenyl)-12-[(6-isobutylfuro[2,3-b]pyrazin-2-yl)methyl]-11-[(1-methylcyclopropyl)methyl]-2,2-dioxo-9-oxa-2λ^6-thia-3,5,12,19-tetrazatricyclo[12.3.1.14,8]nonadeca-1(18),4(19),5,7,14,16-hexaen-13-one]"
1000 to 3000,> 60,+++ (+++ is >60%),–,–,CCC(C)(C)C[C@H]1COc2cc(-c3c(C)cccc3C)nc(n2)NS(=O)(=O)c2cccc(c2)C(=O)N1Cc1cnc2oc(C(C)(C)C)cc2n1 [IV-37]
< 1000,> 60,+++ (+++ is >60%),–,–,"Cc1cccc(CC(C)C)c1-c1nc2nc(c1C)OC[C@@H](CC(C)(C)C)N(Cc1cnc3cc(C4(C)CC4)n(C)c3n1)C(=O)c1cccc(c1)S(=O)(=O)N2 (atropisomer, axis not shown) [IV-19]"
